Where two headings read alike, the source gives them in different places.
Columns and labels:
human DGKα = target: T1, human DGKα (Homo sapiens, UniProt P23743); test: DGKα LIPGLO assay (extruded liposome substrate), in vitro DGK inhibition; format: biochemical; settings: read-out: DGKa LIPGLO IC50
T1 construct: TVMV protease cleavage site (C); Hexa-His (C); made in house; host or cells: Sf9 insect cells (baculovirus, Bac-to-Bac)

human DGKζ = target: T2, human DGKζ (Homo sapiens, UniProt Q13574); test: DGKζ LIPGLO assay (extruded liposome substrate), in vitro DGK inhibition; format: biochemical; settings: read-out: DGKz LIPGLO IC50
T2 construct: TVMV protease cleavage site (C); Hexa-His (C); made in house; host or cells: Sf9 insect cells (baculovirus, Bac-to-Bac)
T2 sequence (Q13574 with tags, fused parts or gaps isoform Q13574-4): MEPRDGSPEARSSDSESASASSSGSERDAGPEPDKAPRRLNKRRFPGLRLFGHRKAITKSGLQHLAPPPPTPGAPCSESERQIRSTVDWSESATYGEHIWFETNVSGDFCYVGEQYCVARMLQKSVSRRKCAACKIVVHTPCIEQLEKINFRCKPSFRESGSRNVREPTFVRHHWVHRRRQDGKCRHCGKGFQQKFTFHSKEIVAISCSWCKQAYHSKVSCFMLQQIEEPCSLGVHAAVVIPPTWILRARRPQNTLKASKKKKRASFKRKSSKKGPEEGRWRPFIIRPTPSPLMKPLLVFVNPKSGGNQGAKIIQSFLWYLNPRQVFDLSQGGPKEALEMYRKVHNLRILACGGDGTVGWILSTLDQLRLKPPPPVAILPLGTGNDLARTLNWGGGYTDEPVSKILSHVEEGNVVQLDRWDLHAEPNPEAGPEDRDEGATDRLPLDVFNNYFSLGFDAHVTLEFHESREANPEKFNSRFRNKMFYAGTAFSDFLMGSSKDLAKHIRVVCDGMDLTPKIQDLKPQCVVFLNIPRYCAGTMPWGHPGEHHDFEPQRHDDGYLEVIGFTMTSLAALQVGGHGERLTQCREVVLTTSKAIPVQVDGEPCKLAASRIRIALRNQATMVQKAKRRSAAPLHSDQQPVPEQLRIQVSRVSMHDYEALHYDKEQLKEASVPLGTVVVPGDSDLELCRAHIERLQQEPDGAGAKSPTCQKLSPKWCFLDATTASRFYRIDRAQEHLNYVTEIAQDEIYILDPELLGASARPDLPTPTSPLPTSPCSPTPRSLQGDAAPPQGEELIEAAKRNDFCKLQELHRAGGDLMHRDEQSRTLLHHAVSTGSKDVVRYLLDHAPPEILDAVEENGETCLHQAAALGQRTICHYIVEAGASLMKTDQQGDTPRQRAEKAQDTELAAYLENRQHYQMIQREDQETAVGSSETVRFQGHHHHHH

Human venous whole blood = test: Human whole blood IFN-γ assay; format: cell-based; settings: human whole blood, read-out: INFg Whole Blood Normalized Agonist EC50;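 further: blood from healthy donors exposed to compound for 1 h before stimulation with anti-CD3 and anti-CD28 at 1 µg/mL each, IFN-γ quantified in supernatant by AlphaLISA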
[1] = normalized to 3 μM reference compound with anti-CD3 plus anti-CD28 as 100% activation
[2] = anti-CD3 plus anti-CD28, 24 hours, 3 μM reference compound = 100% activation
[3] = Homo sapiens, 24 h, anti-CD3 plus anti-CD28, 24 hours, 3 μM reference compound = 100% activation
[4] = Homo sapiens, 24 h, normalized to 3 μM reference compound with anti-CD3 plus anti-CD28 as 100% activation

T1 sequence (P23743 with tags, fused parts or gaps): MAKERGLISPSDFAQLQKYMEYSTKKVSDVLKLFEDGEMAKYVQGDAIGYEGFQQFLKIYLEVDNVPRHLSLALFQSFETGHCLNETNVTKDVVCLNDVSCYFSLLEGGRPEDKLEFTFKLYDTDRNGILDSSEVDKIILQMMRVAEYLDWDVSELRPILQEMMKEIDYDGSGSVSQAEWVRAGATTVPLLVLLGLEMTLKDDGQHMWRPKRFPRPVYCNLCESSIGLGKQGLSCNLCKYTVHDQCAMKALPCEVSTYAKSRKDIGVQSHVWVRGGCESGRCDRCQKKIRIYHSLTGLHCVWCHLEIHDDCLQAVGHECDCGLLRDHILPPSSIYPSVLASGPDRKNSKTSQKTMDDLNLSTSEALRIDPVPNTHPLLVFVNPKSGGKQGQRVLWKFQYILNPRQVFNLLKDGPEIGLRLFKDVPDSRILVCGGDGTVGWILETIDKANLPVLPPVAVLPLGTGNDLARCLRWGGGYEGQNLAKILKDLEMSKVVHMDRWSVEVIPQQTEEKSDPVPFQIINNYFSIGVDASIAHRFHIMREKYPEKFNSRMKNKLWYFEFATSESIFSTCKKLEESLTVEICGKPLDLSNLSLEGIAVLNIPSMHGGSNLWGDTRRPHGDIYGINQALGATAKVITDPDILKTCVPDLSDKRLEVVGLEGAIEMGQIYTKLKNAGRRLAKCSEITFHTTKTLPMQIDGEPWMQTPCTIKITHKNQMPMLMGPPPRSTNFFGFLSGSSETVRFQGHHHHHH

| Structure (SMILES) | IC50 (human DGKα; liposome (LIPGLO) assay) [nM] | IC50 (human DGKζ; liposome (LIPGLO) assay) [nM] | IC50 (human DGKα; DGKα liposome (LIPGLO) assay) [nM] | IC50 (human DGKζ; DGKζ liposome (LIPGLO) assay) [nM] | EC50 (Human venous whole blood; [1]) [nM] | EC50 (Human venous whole blood; [2]) [nM] | EC50 (Human venous whole blood; [3]) [nM] | EC50 (Human venous whole blood; [4]) [nM] |
| --- | --- | --- | --- | --- | --- | --- | --- | --- |
| CCc1ccc(C(c2ccc(F)cc2)N2C[C@H](C)N(c3c(C#N)c(=O)n(C)c4ccc(C#N)nc34)C[C@H]2C)cc1 (single isomer, unassigned) [Example 812] |  |  | 17000 | 510 |  | 2800 |  |  |
| CC(c1ccc(Cl)cc1)N1CCN(c2c(C#N)c(=O)n(C)c3ccc(C#N)nc23)C[C@H]1C (single isomer, unassigned) [Example 979] |  |  | 910 | 55000 |  |  | 20000 |  |
| C[C@@H]1CN(c2c(C#N)c(=O)n(C)c3ccc(C#N)nc23)CCN1C(c1ccc(F)cc1)c1nccs1 (single isomer, unassigned) [Example 1025] | 1200 | 19000 |  |  | 2000 |  |  |  |
| C[C@@H]1CN(c2c(C#N)c(=O)n(C)c3ccc(C#N)nc23)CCN1C(c1ccc(F)cc1)c1ccc(C(F)(F)F)cn1 (single isomer, unassigned) [Example 897] |  |  | 250 | 5100 |  | 13000 |  |  |
| Cc1ccc(C(c2ccc(F)cc2)N2C[C@H](C)N(c3c(C#N)c(=O)n(C)c4ccc(C#N)nc34)C[C@H]2C)cc1 (stereo partly drawn) [Example 818] |  |  | 58000 | 7300 |  | 4200 |  |  |
| C[C@H]1CN(C(c2ccc(F)cc2)c2ccc(C(F)(F)F)cn2)[C@H](CO)CN1c1cc(=O)n(C)c2ccc(C#N)nc12 (single isomer, unassigned) [Example 1388] | 1100 | 2800 |  |  |  |  |  | 880 |
| C[C@@H]1CN(c2c(C#N)c(=O)n(C)c3ccc(C#N)nc23)[C@@H](C)CN1C(c1ccc(F)cc1)c1ncccc1F (single isomer, unassigned) [Example 821] |  |  | 2700 | 6500 |  | 3400 |  |  |
| C[C@@H]1CN(c2c(C#N)c(=O)n(C)c3ccc(C#N)nc23)[C@@H](C)CN1C(c1cccc(F)c1)c1ccc(C(F)(F)F)cn1 (single isomer, unassigned) [Example 841] |  |  | 83000 | 11000 |  | 3300 |  |  |
| Cn1c(=O)c(C#N)c(N2CCN(C(c3ccc(F)cc3)c3ccc(F)cc3)C(CF)C2)c2nc(Br)ccc21 (stereo not drawn) [Example 9, 4-(4-(bis(4-fluorophenyl)methyl)-3-(fluoromethyl)piperazin-1-yl)-6-bromo-1-methyl-2-oxo-1,2-dihydro-1,5-naphthyridine-3-carbonitrile] | 2100 | 9500 |  |  |  |  |  | 1600 |
| C[C@@H]1CN(c2c(C#N)c(=O)n(C)c3ccc(C#N)nc23)CCN1Cc1ccc(C(C)(C)C)cc1 [Example 1013] |  |  | 7300 | 47000 |  |  | 1400 |  |
| C[C@@H]1CN(c2c(C#N)c(=O)n(C)c3ccc(C#N)nc23)[C@@H](C)CN1C(c1ccc(Cl)cc1)c1ncccc1F (single isomer, unassigned) [Example 819] |  |  | 2300 | 2900 |  |  | 2200 |  |
| C[C@@H]1CN(c2c(C#N)c(=O)n(C)c3ccc(C#N)nc23)[C@@H](C)CN1C(c1ccc(F)cc1)c1ccccn1 (single isomer, unassigned) [Example 842] |  |  | 1200 | 3300 |  | 20000 |  |  |
| C[C@@H]1CN(c2c(C#N)c(=O)n(C)c3ccc(C#N)nc23)CCN1C(c1cccc(Cl)c1)c1ccc(F)cn1 (stereo partly drawn) [Example 926] |  |  | 2500 | 4000 |  |  | 1200 |  |
| CC(c1ccc(Br)cc1)N1CCN(c2c(C#N)c(=O)n(C)c3ccc(C#N)nc23)C[C@H]1C (single isomer, unassigned) [Example 974] |  |  | 1100 | 7600 |  |  | 20000 |  |
| C[C@@H]1CN(c2c(C#N)c(=O)n(C)c3ccc(C#N)nc23)CCN1C(c1ccc(F)cc1)c1nc(C2CC2)no1 (single isomer, unassigned) [Example 1030] | 2200 | 1100 |  |  | 670 |  |  |  |

Further lines, with some results ahead:

| IC50 (human DGKα; liposome (LIPGLO) assay) [nM] | IC50 (human DGKζ; liposome (LIPGLO) assay) [nM] | IC50 (human DGKα; DGKα liposome (LIPGLO) assay) [nM] | IC50 (human DGKζ; DGKζ liposome (LIPGLO) assay) [nM] | Structure (SMILES) | EC50 (Human venous whole blood; [1]) [nM] | EC50 (Human venous whole blood; [2]) [nM] | EC50 (Human venous whole blood; [3]) [nM] | EC50 (Human venous whole blood; [4]) [nM] |
| --- | --- | --- | --- | --- | --- | --- | --- | --- |
| 26 | 17 |  |  | C[C@@H]1CN(c2cc(=O)n(C)c3ccc(C#N)nc23)[C@@H](C)CN1C(c1ccc(Cl)cc1)c1nc(C2CC2)no1 (single isomer, unassigned) [Example 1285] | 92 |  |  |  |
| 11000 | 100 |  |  | COc1cc(F)c(C(C)N2C[C@H](C)N(c3cc(=O)n(C)c4ccc(C#N)nc34)C[C@H]2C)cc1OC (single isomer, unassigned) [Example 1246] | 2100 |  |  |  |
| 67 | 69 |  |  | CCC(c1ccc(C2CC2)cc1F)N1C[C@H](C)N(c2cc(=O)n(C)c3ccc(C#N)nc23)C[C@H]1C (stereo partly drawn) [Example 1219] | 320 |  |  |  |
| 200 | 78 |  |  | CC[C@@H]1CN(c2cc(=O)n(C)c3ccc(C#N)nc23)[C@@H](C)CN1C(c1ccc(Cl)cc1)c1ccc(F)cn1 (stereo partly drawn) [Example 1111] | 310 |  |  |  |
| 97 | 11 |  |  | CC[C@@H]1CN(c2cc(=O)n(C)c3ccc(C#N)nc23)[C@@H](C)CN1C(C)c1ccc(OC)cc1 (single isomer, unassigned) [Example 1350] | 30 |  |  |  |
| 110 | 95 |  |  | CCC(c1ccc(C2CC2)cc1)N1C[C@H](C)N(c2cc(=O)n(C)c3ccc(C#N)nc23)C[C@H]1C (single isomer, unassigned) [Example 1220] | 120 |  |  |  |
|  |  | 120 | 1600 | C[C@@H]1CN(c2cc(=O)n(C)c3ccc(C#N)nc23)[C@@H](C)CN1C(c1ccc(F)cc1)c1nc(C(F)F)no1 (stereo partly drawn) [Example 743] |  |  | 420 |  |
| 330 | 160 |  |  | C[C@@H]1CN(c2cc(=O)n(C)c3ccc(C#N)nc23)[C@@H](C)CN1C(c1ccc(F)cc1)c1cccc(F)c1 (stereo partly drawn) [Example 293, 8-[(2S,5R)-4-[(3-fluorophenyl)(4-fluorophenyl)methyl]-2,5-dimethylpiperazin-1-yl]-5-methyl-6-oxo-5,6-dihydro-1,5-naphthyridine-2-carbonitrile] | 460 |  |  |  |
| 380 | 95 |  |  | C[C@@H]1CN(c2cc(=O)n(C)c3ccc(C#N)nc23)[C@@H](C)CN1C(c1ccc(F)cc1)c1nc(C2CC2)cs1 (single isomer, unassigned) [Example 700] | 120 |  |  |  |
| 200 | 3200 |  |  | CC(c1ccc(-n2cncn2)cc1)N1C[C@H](C)N(c2cc(=O)n(C)c3ccc(C#N)nc23)C[C@H]1C (single isomer, unassigned) [Example 1238] | 9700 |  |  |  |
| 160 | 500 |  |  | COc1ccc(C(C)N2C[C@H](C)N(c3cc(=O)n(C)c4ccc(C#N)nc34)C[C@H]2C)nc1 (single isomer, unassigned) [Example 644] | 3800 |  |  |  |
| 36 | 3900 |  |  | CC(c1ccc(F)cn1)N1C[C@H](C)N(c2cc(=O)n(C)c3ccc(C#N)nc23)C[C@H]1C (single isomer, unassigned) [Example 640] | 1600 |  |  |  |
| 56 | 240 |  |  | CCC(c1ccc(OC(C)(C)C)cc1)N1C[C@H](C)N(c2cc(=O)n(C)c3ccc(C#N)nc23)C[C@H]1C (single isomer, unassigned) [Example 1443] |  |  |  | 810 |
| 49 | 290 |  |  | CC[C@H]1CN(C(c2ccc(F)cc2)c2ccccn2)[C@H](CC)CN1c1cc(=O)n(C)c2ccc(C#N)nc12 (single isomer, unassigned) [Example 1043] |  |  |  | 390 |
| 150 | 2700 |  |  | C[C@@H]1CN(c2cc(=O)n(C)c3ccc(C#N)nc23)[C@@H](C)CN1C(c1ccc(F)cc1)c1ncccn1 (stereo partly drawn) [Example 677] | 1800 |  |  |  |
| 310 | 1000 |  |  | Cc1ccc(C(c2ccc(C#N)cc2)N2C[C@H](C)N(c3cc(=O)n(C)c4ccc(C#N)nc34)C[C@H]2C)nc1 (stereo partly drawn) [Example 453, 8-((2S,5R)-4-((4-cyanophenyl)(5-methylpyridin-2-yl)methyl)-2,5-dimethylpiperazin-1-yl)-5-methyl-6-oxo-5,6-dihydro-1,5-naphthyridine-2-carbonitrile] | 2800 |  |  |  |

— US10669272B2, “Substituted naphthyridinone compounds useful as T cell activators” (BRISTOL-MYERS SQUIBB COMPANY, priority 2018, dated 2020)
